What was measured:
Assay in all cases: relative viability (nuclei count vs DMSO), 5 days (fraction); higher = more cells survive
[1] = compound: C1CC(C1)(C(=O)O)C(=O)O.[NH2-].[NH2-].[Pt+2] [Carboplatin] + CC(=O)Nc1cccc(-n2c(=O)n(C3CC3)c(=O)c3c(Nc4ccc(I)cc4F)n(C)c(=O)c(C)c32)c1 [Trametinib] (partner 0.02 µM)
Procedure, shortened: (§1)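 Relative viability equals treated-well nuclei counts divided by vehicle-well nuclei counts. Counts came from 4× images of lung cancer cell lines grown in 1536-well plates for 5 days after pin-tool dosing on the day after seeding. Dosing used one drug alone or a fixed anchor-drug dose plus five library-drug doses (not always all listed) in √10 steps, and values are medians of duplicate plates.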

[2] = compound: C1CC(C1)(C(=O)O)C(=O)O.[NH2-].[NH2-].[Pt+2] [Carboplatin] + C[C@@H](Oc1cc(-c2cnn(C3CCNCC3)c2)cnc1N)c1c(Cl)ccc(F)c1Cl [Crizotinib] (partner 1 µM)
Procedure, shortened: as §1

[3] = compound: CC[C@H](C)N1C=C(C2=C(C=C(C=C21)C3=CN=C(C=C3)N4CCNCC4)C(=O)NCC5=C(C=C(NC5=O)C)C)C [GSK126] + CS(=O)(=O)N1CCN(Cc2cc3nc(-c4cccc5[nH]ncc45)nc(N4CCOCC4)c3s2)CC1 [Pictilisib] (partner 1 µM)
Procedure, shortened: as §1

[4] = compound: CC[C@H](C)N1C=C(C2=C(C=C(C=C21)C3=CN=C(C=C3)N4CCNCC4)C(=O)NCC5=C(C=C(NC5=O)C)C)C [GSK126] + O=C(c1cc(Cc2n[nH]c(=O)c3ccccc23)ccc1F)N1CCN(C(=O)C2CC2)CC1 [Olaparib] (partner 8 µM)
Procedure, shortened: as §1

Cell Line	relative viability ([1]; first compound 0.08 µM)	relative viability ([1]; first compound 0.253 µM)	relative viability ([1]; first compound 0.8 µM)	relative viability ([1]; first compound 2.53 µM)	relative viability ([1]; first compound 8 µM)	relative viability ([2]; first compound 0.08 µM)	relative viability ([2]; first compound 0.253 µM)	relative viability ([2]; first compound 0.8 µM)	relative viability ([2]; first compound 2.53 µM)	relative viability ([2]; first compound 8 µM)	relative viability ([3]; first compound 0.08 µM)	relative viability ([3]; first compound 0.253 µM)	relative viability ([3]; first compound 0.8 µM)	relative viability ([3]; first compound 2.53 µM)	relative viability ([3]; first compound 8 µM)	relative viability ([4]; first compound 0.08 µM)	relative viability ([4]; first compound 0.253 µM)	relative viability ([4]; first compound 0.8 µM)	relative viability ([4]; first compound 2.53 µM)	relative viability ([4]; first compound 8 µM)
A-427	0.85	0.812	0.747	0.81	0.739	0.91	1.13	0.894	0.976	0.799	0.855	0.786	0.701	0.799	0.641	0.704	0.724	0.701	0.765	0.837
SW 1573	0.677	0.539	0.528	0.555	0.387	0.821	0.781	0.652	0.886	0.661	0.568	0.485	0.528	0.486	0.559	0.609	0.542	0.582	0.621	0.49
PC-14	0.785	0.751	0.692	0.407	0.14	0.895	0.856	0.851	0.83	0.532	0.684	0.667	0.59	0.693	0.656	0.348	0.295	0.335	0.354	0.396
LOU-NH91	0.786	0.792	0.763	0.803	0.775	0.74	0.731	0.714	0.735	0.725	0.519	0.501	0.557	0.524	0.545	0.938	0.942	0.879	0.956	0.887
BEN	1.2	0.928	0.97	0.893	0.865	1.15	0.946	0.78	0.79	0.761	0.706	0.569	0.582	0.541	0.438	1.23	1.01	1.16	1.13	1.12
NCI-H2085	0.498	0.558	0.512	0.518	0.527	1.01	0.932	0.778	0.754	0.676	0.484	0.358	0.369	0.485	0.49	0.77	0.784	0.764	0.771	0.762
LCLC-103H	0.703	0.703	0.68	0.689	0.654	1.06	1.01	1.01	1.19	1.01	0.712	0.555	0.683	0.626	0.658	0.837	0.791	0.774	0.792	0.795
NCI-H661	0.58	0.547	0.591	0.554	0.539	1	1.05	0.98		0.843	0.43	0.433	0.401	0.565	0.345	0.706	0.74	0.722	0.689	0.705
NCI-H1792	0.514	0.395	0.354	0.361	0.231	1.07	1.04	0.945	0.888	0.866	0.289	0.272	0.35	0.3	0.246	0.471	0.351	0.507	0.374	0.551
H3255	0.699	0.83	0.754	0.588	0.474	0.874	0.884	0.825	0.79	0.726	0.472	0.512	0.492	0.466	0.441	0.571	0.553	0.517	0.582	0.57
EMC-BAC-2	0.899	0.825	0.924	0.832	0.686	0.738	0.755	0.76	0.681	0.642	0.516	0.549	0.496	0.53	0.592	0.512	0.436	0.502	0.436	0.47
NCI-H1666	0.914	0.848	0.85	0.813	0.787	0.997	1.07	0.838	0.917	0.568	0.558	0.483	0.379	0.384	0.528	0.745	0.723	0.742	0.729	0.76
HCC-366	0.406	0.43	0.372	0.269	0.179	0.518	0.659	0.445	0.465	0.154	0.132	0.138	0.13	0.0968	0.126	0.451	0.386	0.366	0.396	0.342
LCLC-97TM1	0.236	0.216	0.212	0.228	0.26	0.338		0.271	0.288	0.312	0.22		0.229	0.285	0.18	0.494	0.596	0.413	0.507	0.445
NCI-H2405	0.752	0.661	0.635	0.633	0.606	0.901	0.906	0.847	0.813	0.754	0.427	0.385	0.437	0.452	0.397	0.887	0.84	0.844	0.89	0.744
NCI-H1915	0.325	0.29	0.296	0.288	0.257	0.873	0.929	0.875	0.756	0.521	0.937	0.874	1.04	0.941	0.927	0.271	0.277	0.25	0.266	0.269

Cell Line	relative viability ([1]; first compound 0.08 µM)	relative viability ([1]; first compound 0.253 µM)	relative viability ([1]; first compound 0.8 µM)	relative viability ([1]; first compound 2.53 µM)	relative viability ([1]; first compound 8 µM)	relative viability ([2]; first compound 0.08 µM)	relative viability ([2]; first compound 0.253 µM)	relative viability ([2]; first compound 0.8 µM)	relative viability ([2]; first compound 2.53 µM)	relative viability ([2]; first compound 8 µM)	relative viability ([3]; first compound 0.08 µM)	relative viability ([3]; first compound 0.253 µM)	relative viability ([3]; first compound 0.8 µM)	relative viability ([3]; first compound 2.53 µM)	relative viability ([3]; first compound 8 µM)	relative viability ([4]; first compound 0.08 µM)	relative viability ([4]; first compound 0.253 µM)	relative viability ([4]; first compound 0.8 µM)	relative viability ([4]; first compound 2.53 µM)	relative viability ([4]; first compound 8 µM)
NCI-H650	1.01	1.08	1	0.849	0.818	0.789	0.697	0.569	0.506	0.567	1.02	0.781	0.884	0.884	0.801	0.446	0.373	0.363	0.405	0.389
NCI-H1650	0.623	0.585	0.573	0.522	0.389	1.2	0.968	0.907	0.824	0.533	0.568	0.596	0.566	0.794	0.556	0.742	0.849	0.761	0.784	0.901
NCI-H596	0.846	0.845	0.722	0.645	0.518	0.895	0.983	0.834	0.783	0.735	0.386	0.404	0.378	0.382	0.37	0.713	0.703	0.702	0.847	0.758
HCC-44	1.14	1.08	1.02	1.1	0.903	0.752	0.822	0.742	0.751	0.668	0.643	0.534	0.894	0.61	0.591	1.01	1.02	1.03	0.92	1
NCI-H2087	0.242	0.257	0.171	0.198	0.175	0.817	0.907	0.8	0.845	0.769	1.08	0.745	0.815	0.894	0.844	0.62	0.6	0.683	0.752	0.788
RERF-LC-KJ	0.863	0.876	0.785	0.696	0.53	0.824	0.861	0.84	0.72	0.631	0.551	0.554	0.589	0.529	0.55	0.935	0.979	1.04	0.826	0.83
NCI-H2126	0.586	0.613	0.562	0.614	0.536	1.04	1.06	1.02	0.962	1	0.497	0.531	0.523	0.496	0.502	0.963	0.957	0.884	0.916	0.915
NCI-H2228	0.678	0.575	0.616	0.543	0.344	0.469	0.517	0.41	0.593	0.428	0.357	0.519	0.494	0.497	0.42	0.649	0.75	0.511	0.669	0.691
SK-LU-1	0.584	0.525	0.485	0.441	0.356	1.09	1.08	1.05	0.961	0.626	0.657	0.699	0.587	0.667	0.694	0.555	0.452	0.45	0.396	0.482
HARA	0.68	0.865	0.917	0.412	0.607	1.01	1.06	0.934	0.824	0.954	0.394	0.421	0.48	0.411	0.37	0.994	0.911	0.934	0.861	0.657
EPLC-272H	0.302	0.317	0.334	0.273	0.303	0.975	1.05	0.892	0.888	0.937	0.35	0.337	0.26	0.329	0.3	0.818	0.749	0.697	0.806	0.804
SK-MES-1	0.645	0.469	0.524	0.556	0.565	0.958	1.02	1.01	0.914	0.909	0.386	0.322	0.329	0.357	0.392	0.798	0.787	0.721	0.724	0.657
COR-L 105	0.472	0.445	0.441	0.456	0.442	0.814	0.812	0.757	0.609	0.501	0.435	0.406	0.347	0.389	0.459	0.586	0.628	0.732	0.583	0.631
NCI-H727	0.391	0.4	0.349	0.376	0.392	0.988	0.953	0.704	0.614	0.317	0.269	0.367	0.317	0.367	0.43	0.866	0.805	0.68	0.812	0.646
NCI-H2170	0.911	1.02	0.966	0.814	0.717	1.13	1.18	1.21	1.13	0.971	0.333	0.281	0.35	0.322	0.346	0.603	0.669	0.559	0.54	0.529
EKVX	0.324	0.342	0.332	0.359	0.327	1.19	1.09	0.985	0.875	0.947	0.417	0.474	0.408	0.518	0.353	0.929	1	0.808	1.11	0.816

Reference: the supplement of paper PMC10307832
